Source: patent US9034866B2 (Genentech, Inc., priority 2012, dated 2015)
Read-outs that look alike come from different tables or passages of the source.

Columns and labels:
[1] = target: nuclear factor-kappa B (NF-kB)-inducing kinase (NIK) (Homo sapiens (Human), UniProt Q99558); assay: NIK Enzyme Inhibition Assay (Transcreener ADP fluorescence polarization); type: biochemical; conditions: purified NIK 0.2-1 nM, 10 uM ATP, Morrison's quadratic equation; read-out: NIK ADP-FP (Ki uM)
Summary of the method: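 Baculovirus/insect-cell-expressed NIK (0.2-1 nM) incubated with compounds 1-3.5 h at 10 uM ATP. Buffer: 50 mM HEPES pH 7.2, 10 mM MgCl2, 2 mM DTT, 1% DMSO. ADP detected by Transcreener fluorescence polarization (ADP antibody, AlexaFluor 633 tracer) after EDTA quench.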

[2] = system: REL-A (p65) nuclear translocation in HeLa cells; assay: REL-A nuclear translocation assay (classical NF-kB signaling), high content imaging; type: cell-based; conditions: Homo sapiens, compounds 4.5 hours, then 10 ng/mL TNF-α for 30 minutes, read-out: REL-A HeLa Transloc Assay (IC50)
Protocol: (§1) (2) A second set of cell assay are used to define the selectivity of NIK inhibitors toward inhibition of classical vs. non-classical NF-kB signaling and rely on quantification of the nuclear translocation of p52 (NF-kB2) and REL-A (p65) using high content cellular imaging. For the p52 (non-classical NF-kB signaling) nuclear translocation assay, HeLa cells are treated with different concentrations of compounds (0.2% DMSO final) in medium containing 10% fetal bovine serum and then stimulated with 100 ng/mL, of an anti-lymphotoxin beta receptor antibody (R&D Systems) for 5 hours. In the REL-A nuclear translocation assay, HeLa cells are incubated with compounds (0.2% DMSO final) for 4.5 hours in medium containing 10% fetal bovine serum before stimulating them with 10 ng/mL tumor necrosis factor (TNF)-α (R&D Systems) for 30 minutes. Cells are fixed with 4% paraformaldehyde, permeabilized by adding 0.1% Triton X-100 in phosphate buffered saline, and then are incubated with either 2 ug/mL anti-p52 antibody (Millipore) or 400 ng/mL anti-REL-A (p65) antibody (Santa Cruz Biotechnology). Finally, the cells are incubated with an Alexa488-labeled secondary antibody (Invitrogen) and DRAQ5 DNA stain (Biostatus). Imaging is carried out using an Opera reader (Perkin Elmer) and data are analyzed with the aid of Acapella software (Perkin Elmer). The p52 or REL-A translocation into the nucleus is quantified by the ratio of the nuclear to cytoplasmic signal intensity. […] The compounds in listed in Table 1 have the corresponding inhibitory value (IC50 in micromolar) for NIK p52 Translocation Assay as set forth in Table 2.
The compounds in listed in Table 1 has the corresponding inhibitory value (IC50 in micromolar) for NIK RelA Translocation Assay as set forth in Table 2.

[3] = system: p52 (NF-kB2) nuclear translocation in HeLa cells; assay: p52 nuclear translocation assay (non-classical NF-kB signaling), high content imaging; type: cell-based; conditions: 100 ng/mL anti-lymphotoxin beta receptor antibody for 5 hours, read-out: p52 HeLa Transloc Assay (IC50)
Protocol: as §1

nuclear factor-kappa B (NF-kB)-inducing kinase (NIK), sequence (Q99558 whole entry): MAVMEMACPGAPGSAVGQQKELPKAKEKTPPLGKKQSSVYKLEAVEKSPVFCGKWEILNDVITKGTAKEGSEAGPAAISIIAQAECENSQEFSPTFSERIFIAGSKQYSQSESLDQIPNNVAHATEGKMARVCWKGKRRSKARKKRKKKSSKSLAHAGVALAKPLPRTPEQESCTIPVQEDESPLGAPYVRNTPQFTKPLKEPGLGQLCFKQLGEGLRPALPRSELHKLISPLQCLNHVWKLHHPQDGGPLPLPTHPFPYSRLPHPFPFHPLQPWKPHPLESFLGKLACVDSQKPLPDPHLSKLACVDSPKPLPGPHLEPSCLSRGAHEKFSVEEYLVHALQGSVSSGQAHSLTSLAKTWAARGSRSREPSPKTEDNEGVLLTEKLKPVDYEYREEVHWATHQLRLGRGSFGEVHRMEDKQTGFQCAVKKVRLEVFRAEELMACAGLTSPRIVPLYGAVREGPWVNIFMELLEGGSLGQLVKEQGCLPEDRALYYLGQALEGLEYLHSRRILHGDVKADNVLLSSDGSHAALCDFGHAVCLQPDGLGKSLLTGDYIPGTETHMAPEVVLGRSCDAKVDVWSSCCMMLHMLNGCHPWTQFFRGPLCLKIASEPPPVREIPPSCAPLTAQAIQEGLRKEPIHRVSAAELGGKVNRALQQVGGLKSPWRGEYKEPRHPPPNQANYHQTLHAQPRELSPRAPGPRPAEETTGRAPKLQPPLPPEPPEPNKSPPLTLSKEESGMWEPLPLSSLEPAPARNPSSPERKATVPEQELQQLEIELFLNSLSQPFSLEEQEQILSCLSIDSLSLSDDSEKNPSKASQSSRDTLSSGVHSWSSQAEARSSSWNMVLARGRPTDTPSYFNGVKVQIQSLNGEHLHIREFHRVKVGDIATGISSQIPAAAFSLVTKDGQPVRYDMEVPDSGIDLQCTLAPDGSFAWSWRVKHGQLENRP

Row | Ki [1] [µM] | IC50 ([2]; HeLa) [nM] | Structure (SMILES) | IC50 ([3]; Homo sapiens, HeLa, 5 h) [nM] | IC50 [2] [nM] | IC50 ([3]; Homo sapiens) [nM] | IC50 [3] [nM]
1 | 0.026 | > 20000 | CC(C)(O)C#Cc1ccc2c(c1)-c1nc(C(N)=O)c(C(F)(F)F)n1C1CC2C1 (racemic) [Example 206] | 4400 |  |  | 
2 | 0.00072 | > 20000 | CN1CC[C@@](O)(C#Cc2ccc3c(c2)-c2nc(C(N)=O)c(C(F)(F)F)n2CCO3)C1=O | 442 |  |  | 
3 | 0.0015 | > 20000 | Cn1nccc1C(O)c1c(C(N)=O)nc2n1CCOc1cc(F)c(C#CC(C)(C)O)cc1-2 (racemic) | 2400 |  |  | 
4 |  | > 20000 | Cc1nc([C@](C)(O)C#Cc2ccc3c(c2)-c2nc(C(N)=O)sc2C2CC3C2)no1 [Example 450, (R)-9-(3-hydroxy-3-(5-methyl-1,2,4-oxa-diazol-3-yl)but-1-yn-1-yl)-5,6-dihydro-4H-4,6-methanobenzo[6,7]cyclo-hepta[1,2-d]thiazole-2-carboxamide] | 459 |  |  | 
5 |  | > 20000 | NC(=O)c1cn2c(n1)-c1cc(C#CC3(O)CCC3)c(F)cc1C1CC2C1 [Example 364, 9-fluoro-10-[2-(1-hydroxycyclobutyl)ethy-nyl]-5,6,7,12-tetrahydro-5,7-methano-benzo[c]imidazo[1,2-a]azepine-2-carboxamide] | 985 |  |  | 
6 |  | > 20000 | Cn1nccc1C(O)c1c(C(N)=O)nc2n1C1CC(C1)c1cc(F)c(C#CC3(O)CCCC3)cc1-2 (stereo not drawn) [Example 304, 9-fluoro-10-[2-(1-hydroxycyclopen-tyl)ethynyl]-3-[hydroxy-(2-methylpyrazol-3-yl)methyl]-5,6,7,12-tetrahydro-5,7-meth-anobenzo[c]imidazo[1,2-a]azepine-2-car-boxamide] | 1100 |  |  | 
7 |  | > 20000 | CN1CC[C@@](O)(C#Cc2ccc3c(c2)-c2nc(C(N)=O)c(C(=O)NC4CCOCC4)n2CCO3)C1=O [Example 422, 9-fluoro-10-(3-hydroxy-3-methyl-but-1-ynyl)-3-(1-hydroxy-1-methyl-ethyl)-5,6,7,12-tetrahydro-5,7-methanobenzo[c]imidazo[1,2-a]azepine-2-carboxamide] | 406 |  |  | 
8 |  | > 20000 | CN1CC[C@@](O)(C#Cc2ccc3c(c2)-c2nc(C(N)=O)sc2C(F)(F)CO3)C1=O [Example 406, 10-[(3R)-3-hydroxy-3-(5-methylisoxazol-3-yl)but-1-ynyl]-N3,N3-dimethyl-5,6,7,12-tetrahydro-5,7-methanobenzo[c]imidazo[1,2-a]azepine-2,3-dicarboxamide] | 76.1 |  |  | 
9 |  | 9500 | CC(C)(O)C#Cc1ccc2c(c1)-c1nc(C(N)=O)c(-c3nnc(C4CC4)s3)n1C1CC2C1 [Example 390, 9-fluoro-10-(3-hydroxy-3-methyl-but-1-ynyl)-3-(trifluoromethyl)-5,6,7,12-tetrahydro-5,7-methanobenzo[c]imidazo[1,2-a]azepine-2-carboxamide] | 1500 |  |  | 
10 |  | > 20000 | CNC(=O)c1c(C(N)=O)nc2n1C1CC(C1)c1ccc(C#CC3(O)CCC3)cc1-2 [Example 361, 10-[2-(1-hydroxycyclobutyl)ethynyl]-N3-methyl-5,6,7,12-tetrahydro-5,7-meth-anobenzo[c]imidazo[1,2-a]azepine-2,3-dicarboxamide] | 409 |  |  | 
11 |  | > 20000 | CC(=O)N(Cc1c(C(N)=O)nc2n1C1CC(C1)c1cc(F)c(C#CC(C)(C)O)cc1-2)C(C)C [Example 371, 3-[[acetyl(isopropyl)amino]methyl]-9-fluoro-10-(3-hydroxy-3-methyl-but-1-ynyl)-5,6,7,12-tetrahydro-5,7-methano-benzo[c]imidazo[1,2-a]azepine-2-carboxamide] | 1900 |  |  | 

The remaining lines, values behind:

Row | Structure (SMILES) | Ki [1] [µM] | IC50 ([2]; HeLa) [nM] | IC50 ([3]; Homo sapiens, HeLa, 5 h) [nM] | IC50 [2] [nM] | IC50 ([3]; Homo sapiens) [nM] | IC50 [3] [nM]
12 | CC(O)(C#Cc1cc2c(cc1F)OCCc1sc(C(N)=O)nc1-2)CO (stereo not drawn) | 0.003 | 20000 | 1100 |  |  | 
13 | CNC(=O)c1c(C(N)=O)nc2n1CCOc1ccc(C#C[C@@](C)(O)c3noc(C)n3)cc1-2 [Example 98, 9-[(R)-3-hydroxy-3-(5-methyl-[1,2,4]ox-adiazol-3-yl)-but-1-ynyl]-4,5-dihydro-6-oxa-1,3a-diaza-benzo[e]azulene-2,3-di-carboxylic acid 2-amide 3-methylamide] | 0.002 | 20000 | 237 |  |  | 
14 | Cn1c(C(N)=O)nc2c1C1CC(C1)c1ccc(C#C[C@@](C)(O)c3ncccn3)cc1-2 [Example 427, 9-fluoro-10-(3-hydroxy-3-methyl-but-1-ynyl)-N3-methyl-5,6,7,12-tetrahydro-5,7-methanobenzo[c]imidazo[1,2-a]azepine-2,3-dicarboxamide] |  | > 20000 | 453 |  |  | 
15 | NC(=O)c1cn2c(n1)-c1cc(C#CC3(O)CCC3)ccc1C1CC2C1 [Example 369, 10-[2-(1-hydroxycyclobutyl)ethynyl]-5,6,7,12-tetrahydro-5,7-methanobenzo[c]imi-dazo[1,2-a]azepine-2-carboxamide] |  |  |  | > 20000 | 3700 | 
16 | Cc1cc([C@](C)(O)C#Cc2cc3c(cc2F)C2CC(C2)n2c-3nc(C(N)=O)c2CNC(=O)C2CC2)no1 [Example 363] |  |  |  | > 20000 | 660 | 
17 | Cc1cc([C@](C)(O)C#Cc2ccc3c(c2)-c2nc(C(N)=O)c(Cn4c(C)nc5ccccc54)n2CCO3)no1 [Example 415, 9-fluoro-10-(3-hydroxy-3-methyl-but-1-ynyl)-3-[(2-methoxyethylamino)methyl]-5,6,7,12-tetrahydro-5,7-methanobenzo[c]imidazo[1,2-a]azepine-2-carboxamide] |  | > 20000 | 979 |  |  | 
18 | CN1CC[C@@](O)(C#Cc2cc3c(cc2F)C2CC(C2)n2c-3nc(C(N)=O)c2C2CC2)C1=O [Example 333, 3-cyclopropyl-9-fluoro-10-[2-[(3R)-3-hy-droxy-1-methyl-2-oxo-pyrrolidin-3-yl]ethynyl]-5,6,7,12-tetrahydro-5,7-meth-anobenzo[c]imidazo[1,2-a]azepine-2-carboxamide] |  | > 20000 | 2200 |  |  | 
19 | CNC(=O)c1c(C(N)=O)nc2n1C1CC(C1)c1ccc(C#CC3(O)CCCC3)cc1-2 (racemic) |  | > 20000 | 709 |  |  | 
20 | CC(O)(C#Cc1cc2c(cc1F)OCCc1sc(C(N)=O)nc1-2)c1ccccn1 (stereo not drawn) [Example 93] |  | 20000 | 344 |  |  | 
21 | CN1CC[C@@](O)(C#Cc2cc3c(cc2F)OCCn2c-3nc(C(N)=O)c2C2CC2)C1=O [Example 418, 9-fluoro-10-(3-hydroxy-3-methyl-but-1-ynyl)-3-[[2-methoxyethyl(methyl)amino]methyl]-5,6,7,12-tetrahydro-5,7-methanobenzo[c]imidazo[1,2-a]azepine-2-carboxamide] |  | > 20000 | 515 |  |  | 
22 | CN1CC[C@@](O)(C#Cc2ccc3c(c2)-n2nc(C(N)=O)cc2C2(CC2)CO3)C1=O [Example 460] |  | > 20000 | 252 |  |  | 
23 | COC[C@](C)(O)C#Cc1ccc2c(c1)-c1nc(C(N)=O)sc1[C@H](F)CO2 |  | 15300 | 682 |  |  | 
24 | Cc1nc([C@](C)(O)C#Cc2cc3c(cc2F)OC[C@@H](N(C)C)c2sc(C(N)=O)nc2-3)no1 (racemic) [Example 256] |  | > 20000 | 2900 |  |  | 2000
25 | CN1CC[C@@](O)(C#Cc2ccc3c(c2)-n2nc(C(N)=O)c(C(F)(F)F)c2CCO3)C1=O (racemic) [Example 500] |  | > 20000 | 381 |  |  | 
26 | CN1CC[C@@](O)(C#Cc2ccc3c(c2)-c2nc(C(N)=O)c(Cc4ccccc4Cl)n2C2CC3C2)C1=O [Example 308] |  | 20000 | 1500 |  |  | 
27 | CN1CC[C@@](O)(C#Cc2cc3c(cc2F)C2CC(C2)n2cc(C(N)=O)nc2-3)C1=O [Example 300] |  | > 20000 | 3000 |  |  | 
28 | Cc1nc([C@](C)(O)C#Cc2cc3c(cc2F)OC[C@H](N(C)C)c2sc(C(N)=O)nc2-3)no1 [Example 258, (S)-4-(dimethylamino)-8-fluoro-9-[3-(R)-hydroxy-3-(5-methyl-1,2,4-oxadiazol-3-yl)but-1-ynyl]-4,5-dihydro-[1]benzoxe-pino[5,4-d]thiazole-2-carboxamide] |  | > 20000 | 2900 |  |  | 2000
